US5750540A, “1,4-di-substituted piperidine derivatives” (Banyu Pharmaceutical Co., Ltd., priority 1995, dated 1998)

Tests used:
[1] = molecular target: T1, muscarinic M2 receptors (Rattus norvegicus, UniProt P10980); test: Inhibition of binding to muscarinic M2 receptors ([3H]-N-methylscopolamine, heart membrane); settings: 0.2 nM [3H]-N-methylscopolamine
T1 construct: a membrane specimen from the heart was used as the membrane specimen; from tissue; host or cells: rat heart membranes (SD rat)
T1 sequence (P10980 1-466): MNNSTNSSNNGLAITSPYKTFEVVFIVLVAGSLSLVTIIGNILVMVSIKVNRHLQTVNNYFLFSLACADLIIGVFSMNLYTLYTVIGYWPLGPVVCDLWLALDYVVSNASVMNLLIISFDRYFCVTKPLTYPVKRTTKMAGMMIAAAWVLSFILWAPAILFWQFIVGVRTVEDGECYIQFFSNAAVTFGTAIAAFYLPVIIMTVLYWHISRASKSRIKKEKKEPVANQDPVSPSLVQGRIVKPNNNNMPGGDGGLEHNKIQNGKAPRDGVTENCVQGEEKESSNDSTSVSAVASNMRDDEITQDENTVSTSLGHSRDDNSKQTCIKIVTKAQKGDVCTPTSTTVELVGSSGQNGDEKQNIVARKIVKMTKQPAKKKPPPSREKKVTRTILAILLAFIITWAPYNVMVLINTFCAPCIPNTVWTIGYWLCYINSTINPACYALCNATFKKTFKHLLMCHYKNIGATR
Experimental: The compounds of formula [I] in accordance with the present invention have a potent and selective inhibitory effect on binding to muscarinic receptors, as well as a potent and selective antagonistic effect on muscarinic receptors both in vitro and in vivo. […] In these tests, their inhibitory and antagonistic effects were expressed in terms of the dissociation constant (Ki) of each test compound which was calculated from its concentration (IC50 ) causing a 50% inhibition of the binding of a labeled ligand to muscarinic receptors. As the labeled ligand, [^3 H]-telenzepine was used for the muscarinic M1 receptors and [^3 H]-N-methylscopolamine for the muscarinic M2 and M3 receptors.
(§1) A male SD strain rat (purchased from Nippon Charles River Co., Ltd.), weighing about 250-350 g, was sacrificed, and the cerebral cortex, heart and lacrimal glands were excised. Using a Polytron (setting 5), each organ was homogenized in 5 volumes of an ice-cold buffer solution (pH 7.4) containing 50 mM tris-HCl, 5 mM magnesium chloride, 1 mM trisodium ethylenediaminetetraacetate and 20% sucrose. The resulting homogenate was centrifuged at 3,000×g at 4° C. for 15 minutes, and the supernatant was filtered through gauze and ultracentrifuged at 100,000×g at 4° C. for 45 minutes. The resulting precipitate was suspended in an ice-cold buffer solution (pH 7.4) containing 50 mM tris-HCl and 5 mM magnesium chloride (hereinafter referred briefly to as "tris buffer") and ultracentrifuged at 100,000×g at 4° C. for 45 minutes. The resulting precipitate was suspended in tris buffer so as to give a concentration of 50 mg/ml and stored at -80° C. till use. The membrane specimens so prepared were thawed prior to use and submitted to tests for the inhibition of binding to muscarinic receptors.
3) Tests for the inhibition of binding to the muscarinic M2 receptors
(§2) The nonspecific binding of [^3 H]-N-methylscopolamine to receptors was determined by the addition of 1 mM N-methylscopolamine.

[2] = molecular target: T2, muscarinic M1 receptors (Rattus norvegicus, UniProt P08482); test: Inhibition of binding to muscarinic M1 receptors ([3H]-telenzepine, cerebral cortex membrane)
T2 construct: a mixture of a membrane specimen from the cerebral cortex; from tissue; host or cells: rat cerebral cortex membranes (SD rat)
T2 sequence (P08482 1-460): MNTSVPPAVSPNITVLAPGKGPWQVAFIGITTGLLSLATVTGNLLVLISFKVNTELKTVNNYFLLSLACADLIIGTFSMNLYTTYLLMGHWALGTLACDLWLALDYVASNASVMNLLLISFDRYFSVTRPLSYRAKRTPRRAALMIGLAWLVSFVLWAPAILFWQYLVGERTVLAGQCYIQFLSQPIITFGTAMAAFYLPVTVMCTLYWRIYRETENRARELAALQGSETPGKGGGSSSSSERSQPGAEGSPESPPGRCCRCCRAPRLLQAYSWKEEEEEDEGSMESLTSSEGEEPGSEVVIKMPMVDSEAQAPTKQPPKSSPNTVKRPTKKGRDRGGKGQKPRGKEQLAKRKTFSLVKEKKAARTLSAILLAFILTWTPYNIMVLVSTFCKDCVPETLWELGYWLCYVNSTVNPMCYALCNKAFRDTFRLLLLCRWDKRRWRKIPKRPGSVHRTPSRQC
Experimental: (§3) In these tests, their inhibitory and antagonistic effects were expressed in terms of the dissociation constant (Ki) of each test compound which was calculated from its concentration (IC50 ) causing a 50% inhibition of the binding of a labeled ligand to muscarinic receptors. As the labeled ligand, [^3 H]-telenzepine was used for the muscarinic M1 receptors and [^3 H]-N-methylscopolamine for the muscarinic M2 and M3 receptors.
as §1
2) Tests for the inhibition of binding to the muscarinic M1 receptors
These tests were performed according to a modification of the method of Hargreaves et al. [Br. J. Pharmacol., Vol. 107, pp. 494-501 (1992)]. Specifically, a mixture of a membrane specimen from the cerebral cortex, 1 nM [^3 H]-telenzepine (85 Ci/mmol; manufactured by New England Nuclear) and a test compound in 0.5 ml of tris buffer was incubated at room temperature (about 20°-25° C.) for 120 minutes. After the addition of 0.5 ml of ice-cold tris buffer, the mixture was filtered by suction through a glass filter (Packard Unifilter Plate GF/C). Then, the filter was washed four times with 1 ml portions of ice-cold tris buffer and dried at 50° C. for an hour. After the addition of a scintillator (Packard Microscinti 0), the radioactivity of [^3 H]-telenzepine adsorbed to the filter was measured with a microplate scintillation counter (Packard Topcount). The nonspecific binding of [^3 H]-telenzepine to receptors was determined by the addition of […] pirenzepine. According to the method of Cheng and Prusoff [Biochem. Pharmacol., Vol. 22, pp. 3099-3108 (1973)], the affinity of the test compound (i.e., a compound in accordance with the present invention) for the muscarinic M1 receptors was determined in terms of its dissociation constant (Ki) calculated from the concentration (IC50) of the test compound which was required to cause a 50% inhibition of the binding of [^3 H]-telenzepine used as the labeled ligand.

[3] = molecular target: muscarinic M3 receptor (Rattus norvegicus, UniProt P08483); test: Inhibition of binding to muscarinic M3 receptors ([3H]-N-methylscopolamine, lacrimal gland membrane); design: a membrane specimen from the lacrimal glands was used as the membrane specimen; from tissue; host or cells: rat lacrimal gland membranes (SD rat); settings: for M1/M3 / M2/M3: ratio of binding Ki; for M1/M3: M1 over M3; for M2/M3: M2 over M3
Experimental: as §3, §1
4) Tests for the inhibition of binding to the muscarinic M2 receptors
as §2

Sequence of muscarinic M3 receptor (P08483 whole entry): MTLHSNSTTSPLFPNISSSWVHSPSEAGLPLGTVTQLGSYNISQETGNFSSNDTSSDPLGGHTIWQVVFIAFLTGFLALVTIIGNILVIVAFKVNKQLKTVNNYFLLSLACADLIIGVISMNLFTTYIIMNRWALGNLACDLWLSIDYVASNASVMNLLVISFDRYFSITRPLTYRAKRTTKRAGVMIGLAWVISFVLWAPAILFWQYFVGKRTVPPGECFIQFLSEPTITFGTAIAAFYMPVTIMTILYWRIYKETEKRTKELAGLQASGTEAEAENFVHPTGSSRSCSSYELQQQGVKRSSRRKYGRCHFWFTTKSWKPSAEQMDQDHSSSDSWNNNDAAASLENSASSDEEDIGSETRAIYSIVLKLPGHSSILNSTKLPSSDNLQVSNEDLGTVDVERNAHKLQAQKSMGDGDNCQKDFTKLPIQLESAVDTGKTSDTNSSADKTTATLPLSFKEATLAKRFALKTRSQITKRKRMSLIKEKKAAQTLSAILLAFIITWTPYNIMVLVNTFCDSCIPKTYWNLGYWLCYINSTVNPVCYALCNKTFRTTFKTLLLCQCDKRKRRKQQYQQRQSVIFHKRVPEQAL

Compound	Ki [1] [nM]	Ki [2] [nM]	Ki [3] [nM]	M1/M3 [3]	M2/M3 [3]
CC(C)=CCCN1CCC(NC(=O)C(O)(c2ccccc2)C2CCCC2)CC1 (stereo not shown) [Example 16, N-[1-(4-Methyl-3-pentenyl)piperidin-4-yl]-2-cyclopentyl-2-hydroxy-2-phenylacetamide]	302	13	3.1	4.2	97
CC[C@H](C)CCCN1CCC(NC(=O)[C@](O)(c2ccccc2)C2CCC2)CC1.Cl [Example 22, (2R)-N-{1-[(4S)-4-Methylhexyl]piperidin-4-yl}-2-cyclobutyl-2-hydroxy-2-phenylacetamide hydrochloride]	1400	120	9.2	13.0	152
CC(C)=CCCN1CCC(NC(=O)[C@](O)(c2ccccc2)C2CCCC2)CC1.O=C(O)/C=C/C(=O)O [Example 28, (2R)-N-[1-(4-Methyl-3-pentenyl)piperidin-4-yl]-2-cyclopentyl-2-hydroxy-2-phenylacetamide fumarate]	190	6	2	3.0	96
CC[C@H](C)CCCN1CCC(NC(=O)[C@](O)(c2ccccc2)C2CCCC2)CC1.Cl [Example 29, (2R)-N-{1-[(4S)-4-Methylhexyl]piperidin-4-yl}-2-cyclopentyl-2-hydroxy-2-phenylacetamide hydrochloride]	1100	40	4.1	10	270
O=C(NC1CCN(CC2CCCCC2)CC1)C(O)(c1ccccc1)C1CCCC1 (stereo not shown) [Example 32, N-[1-(Cyclohexylmethyl)piperidin-4-yl]-2-cyclopentyl-2-hydroxy-2-phenylacetamide]	2300	–	11	–	–
